Key:
[1] = molecular target: T1, Human PDGFRα, cytoplasmic domain (GST-PDGFRα) (Homo sapiens, UniProt P16234); test: Human PDGFRα biochemical inhibition assay (off-chip Mobility Shift Assay)
T1 construct: made in house

[2] = molecular target: T2, Human PDGFRβ, cytoplasmic domain (GST-PDGFRβ) (Homo sapiens, UniProt P09619); test: Human PDGFRβ biochemical inhibition assay (off-chip Mobility Shift Assay)
T2 construct: made in house
In short: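 GST-tagged cytoplasmic domain (aa 557-1106) from baculovirus was incubated 1 h at room temperature with compound, CSKtide, ATP at Km and Mg²⁺ in HEPES buffer, pH 7.5. Phosphorylated and unphosphorylated peptide were separated by off-chip mobility shift, and the product ratio P/(P+S) gave percent inhibition.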

T2 sequence (P09619 with tags, fused parts or gaps): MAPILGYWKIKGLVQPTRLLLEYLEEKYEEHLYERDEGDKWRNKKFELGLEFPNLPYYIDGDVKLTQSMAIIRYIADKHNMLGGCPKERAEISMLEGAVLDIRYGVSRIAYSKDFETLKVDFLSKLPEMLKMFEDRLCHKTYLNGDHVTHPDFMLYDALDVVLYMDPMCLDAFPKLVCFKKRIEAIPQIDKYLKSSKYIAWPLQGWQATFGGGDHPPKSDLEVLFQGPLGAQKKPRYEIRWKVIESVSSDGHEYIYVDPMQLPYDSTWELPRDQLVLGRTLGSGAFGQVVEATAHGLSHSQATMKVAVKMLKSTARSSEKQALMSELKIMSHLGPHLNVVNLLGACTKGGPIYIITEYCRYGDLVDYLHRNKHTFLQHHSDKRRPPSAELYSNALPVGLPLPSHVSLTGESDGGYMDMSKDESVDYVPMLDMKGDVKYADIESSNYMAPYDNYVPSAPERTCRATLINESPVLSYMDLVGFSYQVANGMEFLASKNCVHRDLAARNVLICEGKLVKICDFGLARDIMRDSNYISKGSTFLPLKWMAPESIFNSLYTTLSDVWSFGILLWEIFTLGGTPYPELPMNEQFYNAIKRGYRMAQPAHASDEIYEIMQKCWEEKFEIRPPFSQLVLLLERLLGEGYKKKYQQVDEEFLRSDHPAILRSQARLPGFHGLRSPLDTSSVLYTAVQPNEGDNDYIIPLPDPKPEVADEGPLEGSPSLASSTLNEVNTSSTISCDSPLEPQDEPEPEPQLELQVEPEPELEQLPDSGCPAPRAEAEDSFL
T1 sequence (P16234 550-1089 T674I): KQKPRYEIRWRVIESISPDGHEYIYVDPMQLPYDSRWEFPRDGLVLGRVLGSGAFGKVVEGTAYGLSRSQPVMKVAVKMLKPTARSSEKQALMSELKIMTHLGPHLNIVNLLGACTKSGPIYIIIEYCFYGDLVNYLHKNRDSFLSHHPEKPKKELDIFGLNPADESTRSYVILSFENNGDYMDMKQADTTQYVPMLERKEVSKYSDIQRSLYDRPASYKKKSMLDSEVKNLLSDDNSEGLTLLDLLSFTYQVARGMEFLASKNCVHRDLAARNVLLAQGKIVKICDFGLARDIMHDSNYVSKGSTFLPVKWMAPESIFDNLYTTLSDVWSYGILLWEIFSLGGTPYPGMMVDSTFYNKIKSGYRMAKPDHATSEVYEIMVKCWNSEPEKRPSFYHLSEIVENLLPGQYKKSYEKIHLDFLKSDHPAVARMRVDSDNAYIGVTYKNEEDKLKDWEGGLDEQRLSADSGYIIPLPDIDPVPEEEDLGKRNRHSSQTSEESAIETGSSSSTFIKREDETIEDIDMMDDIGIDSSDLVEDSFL

Row | Structure (SMILES) | IC50 [1] [nM] | IC50 [2] [nM]
1 | CCn1cc2ncc(N[C@@H](C)c3cc(NC(=O)Cc4ccc(Cl)cn4)ccc3F)nc2n1 [Compound 650, (S)-2-(5-chloropyridin-2-yl)-N-(3-(1-((2-ethyl-2H-pyrazolo[3,4-b]pyrazin-6-yl)amino)ethyl)-4-fluorophenyl)acetamide] | < 300 | 300 to 1000
2 | CCn1cc2ncc(N[C@@H](C)c3cccc(NC(=O)c4cnc(N(C)C)s4)c3)nc2n1 [Compound 340, (S)-2-(dimethylamino)-N-(3-(1-((2-ethyl-2H-pyrazolo[3,4-b]pyrazin-6-yl)amino)ethyl)phenyl)thiazole-5-carboxamide] | < 300 | < 300
3 | C[C@H](Nc1cnc2cnn(C)c2n1)c1cc(NC(=O)c2ccc(C3CC3)nc2)ccc1F [Compound 201, (S)-6-cyclopropyl-N-(4-fluoro-3-(1-((1-methyl-1H-pyrazolo[3,4-b]pyrazin-6-yl)amino)ethyl)phenyl) nicotinamide] | < 300 | < 300
4 | CCn1cc2ncc(N[C@@H](C)c3cccc(NC(=O)Cc4cc(C)cc(F)c4)c3)nc2n1 [Compound 639, (S)-N-(3-(1-((2-ethyl-2H-pyrazolo[3,4-b]pyrazin-6-yl)amino)ethyl)phenyl)-2-(3-fluoro-5-methylphenyl) acetamide] | < 300 | < 300
5 | C[C@H](Nc1cnc2[nH]ccc2n1)c1cccc(NC(=O)c2ccc(C3CC3)nc2)c1 [Compound 594, (S)-N-(3-(1-((5H-pyrrolo[2,3-b]pyrazin-2-yl)amino)ethyl)phenyl)-6-cyclopropylnicotinamide] | < 300 | < 300
6 | CCn1cc2ncc(N[C@@H](C)c3cc(NC(=O)Cc4ccc(C5CCC5)cn4)ccc3C)nc2n1 [Compound 669, (S)-2-(5-cyclobutylpyridin-2-yl)-N-(3-(1-((2-ethyl 2H-pyrazolo[3,4-b]pyrazin-6-yl)amino)ethyl)-4-methylphenyl) acetamide] | < 300 | 300 to 1000
7 | CCn1cc2ncc(N[C@@H](C)c3cccc(NC(=O)Nc4cncc(C)c4)c3)nc2n1 [Compound 732, (S)-1-(3-(1-((2-ethyl-2H-pyrazolo[3,4-b]pyrazin-6-yl)amino)ethyl)phenyl)-3-(5-methylpyridin-3-yl)urea] | < 300 | 300 to 1000
8 | Cc1ncc(C(F)(F)F)cc1C(=O)Nc1cccc([C@H](C)Nc2cnc3cnn(C)c3n2)c1 [Compound 126, (S)-2-methyl-N-(3-(1-((1-methyl-1H-pyrazolo[3,4-b]pyrazin-6-yl)amino)ethyl)phenyl)-5-(trifluoromethyl) nicotinamide] | 300 to 1000 | ≥ 1000
9 | CCn1cc2ncc(N[C@@H](C)c3cc(NC(=O)c4cnn(C5CC5)c4)ccc3F)nc2n1 [Compound 312, (S)-1-cyclopropyl-N-(3-(1-((2-ethyl-2H-pyrazolo[3,4-b]pyrazin-6-yl)amino)ethyl)-4-fluorophenyl)-1H-pyrazole-4-carboxamide] | < 300 | < 300
10 | Cc1cncc(C(=O)Nc2ccc(F)c([C@H](C)Nc3cnc4cn(CC5CNCCO5)nc4n3)c2)c1 (stereo partly drawn) [Compound 411, N-(4-fluoro-3-((1S)-1-((2-(morpholin-2-ylmethyl)-2H-pyrazolo[3,4-b]pyrazin-6-yl)amino)ethyl)phenyl)-5-methylnicotinamide] | < 300 | < 300
11 | Cc1cncc(C(=O)Nc2cccc([C@H](C)Nc3cnc4cnn(CC(F)F)c4n3)c2)c1 [Compound 183, (S)-N-(3-(1-((1-(2,2-difluoroethyl)-1H-pyrazolo[3,4-b]pyrazin-6-yl)amino)ethyl)phenyl)-5-methylnicotinamide] | < 300 | 300 to 1000
12 | C[C@H](Nc1cnc2cnn(C)c2n1)c1cccc(NC(=O)c2ccc(C3CCC3)nc2)c1 [Compound 123, (S)-6-cyclobutyl-N-(3-(1-((1-methyl-1H-pyrazolo[3,4-b]pyrazin-6-yl)amino)ethyl)phenyl)nicotinamide] | < 300 | < 300
13 | CCn1cc2ncc(N[C@@H](C)c3cc(NC(=O)Cc4ccc(C(F)(F)F)cn4)ccc3F)nc2n1 [Compound 654, (S)-N-(3-(1-((2-ethyl-2H-pyrazolo[3,4-b]pyrazin-6-yl)amino)ethyl)-4-fluorophenyl)-2-(5-(trifluoromethyl)pyridin-2-yl) acetamide] | < 300 | ≥ 1000
14 | CCn1cc2ncc(N[C@@H](C)c3cc(NC(=O)Cc4ccc(C)cn4)c(F)cc3F)nc2n1 [Compound 724, (S)-N-(5-(1-((2-ethyl-2H-pyrazolo[3,4-b]pyrazin-6-yl)amino)ethyl)-2,4-difluorophenyl)-2-(5-methylpyridin-2-yl)acetamide] | < 300 | ≥ 1000
15 | CCn1cc2ncc(N[C@@H](C)c3cccc(NC(=O)c4ccc(N5CCN(C)CC5)c(F)c4)c3)nc2n1 [Compound 367, (S)-N-(3-(1-((2-ethyl-2H-pyrazolo[3,4-b]pyrazin-6-yl)amino)ethyl)phenyl)-3-fluoro-4-(4-methylpiperazin-1-yl) benzamide] | 300 to 1000 | ≥ 1000
16 | C[C@H](Nc1cnc2cnn(C)c2n1)c1cccc(NC(=O)c2cnccc2F)c1 [Compound 131, (S)-4-fluoro-N-(3-(1-((1-methyl-1H-pyrazolo[3,4-b]pyrazin-6-yl)amino)ethyl)phenyl) nicotinamide] | 300 to 1000 | ≥ 1000
17 | CCc1ccc(C(=O)Nc2cccc([C@H](C)Nc3cnc4cnn(C)c4n3)c2)cn1 [Compound 207, (S)-6-ethyl-N-(3-(1-((1-methyl-1H-pyrazolo[3,4-b]pyrazin-6-yl)amino)ethyl)phenyl) nicotinamide] | < 300 | < 300
18 | CCn1cc2ncc(N[C@@H](C)c3cc(NC(=O)Cc4cc(C)c(C)cn4)ccc3C)nc2n1 [Compound 694, (S)-2-(4,5-dimethylpyridin-2-yl)-N-(3-(1-((2-ethyl-2H-pyrazolo[3,4-b]pyrazin-6-yl)amino)ethyl)-4-methylphenyl) acetamide] | < 300 | < 300
19 | C[C@H](Nc1cnc2cn[nH]c2n1)c1cccc(NC(=O)c2cncc(C3CC3)c2)c1 [Compound 93, (S)-N-(3-(1-((1H-pyrazolo[3,4-b]pyrazin-6-yl)amino)ethyl)phenyl)-5-cyclopropylnicotinamide] | < 300 | < 300
20 | CCn1cc2ncc(N[C@@H](C)c3cc(NC(=O)c4ccc(F)c(Cl)c4)ccc3C)nc2n1 [Compound 507, (S)-3-chloro-N-(3-(1-((2-ethyl-2H-pyrazolo[3,4-b]pyrazin-6-yl)amino)ethyl)-4-methylphenyl)-4-fluorobenzamide] | < 300 | < 300
21 | Cc1cncc(C(=O)Nc2cccc([C@H](C)Nc3cnc4cc(C)sc4c3)c2)c1 [Compound 18, (S)-5-methyl-N-(3-(1-((2-methylthieno[3,2-b]pyridin-6-yl)amino)ethyl)phenyl)nicotinamide] | < 300 | < 300
22 | CCNc1ncc(C(=O)Nc2cccc([C@H](C)Nc3cnc4cn(CC)nc4n3)c2)cc1Cl [Compound 420, (S)-5-chloro-N-(3-(1-((2-ethyl-2H-pyrazolo[3,4-b]pyrazin-6-yl)amino)ethyl)phenyl)-6-(ethylamino)nicotinamide] | < 300 | < 300
23 | CCn1cc2ncc(N[C@@H](C)c3cccc(NC(=O)c4ccc(C(=O)N5CC[C@@H](N)C5)c(Cl)c4)c3)nc2n1 [Compound 467, 4-((R)-3-aminopyrrolidine-1-carbonyl)-3-chloro-N-(3-((5)-1-((2-ethyl-2H-pyrazolo[3,4-b]pyrazin-6-yl)amino)ethyl)phenyl)benzamide] | < 300 | ≥ 1000
24 | CCn1cc2ncc(N[C@@H](C)c3cc(NC(=O)c4cnc(C(F)(F)F)s4)ccc3F)nc2n1 [Compound 308, (S)-N-(3-(1-((2-ethyl-2H-pyrazolo[3,4-b]pyrazin-6-yl)amino)ethyl)-4-fluorophenyl)-2-(trifluoromethyl)thiazole-5-carboxamide] | < 300 | < 300
25 | CCc1ncc(C(=O)Nc2cccc([C@H](C)Nc3cnc4cn(CC)nc4n3)c2)s1 [Compound 341, (S)-2-ethyl-N-(3-(1-((2-ethyl-2H-pyrazolo[3,4-b]pyrazin-6-yl)amino)ethyl)phenyl)thiazole-5-carboxamide] | < 300 | < 300
26 | CCn1cc2ncc(N[C@@H](C)c3cc(NC(=O)Cc4cc(Cl)ccn4)ccc3C)nc2n1 [Compound 677, (6)-2-(4-chloropyridin-2-yl)-N-(3-(1-((2-ethyl-2H-pyrazolo[3,4-b]pyrazin-6-yl)amino)ethyl)-4-methylphenyl)acetamide] | < 300 | < 300
27 | CCn1cc2ncc(N[C@@H](C)c3cccc(NC(=O)c4cnc(NC5CCOCC5)c(C)c4)c3)nc2n1 [Compound 351, (S)-N-(3-(1-((2-ethyl-2H-pyrazolo[3,4-b]pyrazin-6-yl)amino)ethyl)phenyl)-5-methyl-6-((tetrahydro-2H-pyran-4-yl)amino)nicotinamide] | 300 to 1000 | ≥ 1000
28 | Cc1cncc(C(=O)Nc2cccc([C@H](C)Nc3cnc4ccoc4n3)c2)c1 [Compound 605, (S)-N-(3-(1-(furo[2,3-b]pyrazin-3-ylamino)ethyl)phenyl)-5-methylnicotinamide] | < 300 | < 300
29 | CCn1cc2ncc(N[C@@H](C)c3cccc(NC(=O)c4ccc(CN5CC6(COC6)C5)c(C5CC5)c4)c3)nc2n1 [Compound 505, (S)-4-((2-oxa-6-azaspiro[3.3]heptan-6-yl)methyl)-3-cyclopropyl-N-(3-(1-((2-ethyl-2H-pyrazolo[3,4-b]pyrazin-6-yl)amino)ethyl)phenyl)benzamide] | < 300 | < 300
30 | C[C@H](Nc1cnc2cnn(C)c2n1)c1cccc(NC(=O)c2cncc(C(F)(F)F)c2)c1 [Compound 102, (S)-N-(3-(1-((1-methyl-1H-pyrazolo[3,4-b]pyrazin-6-yl)amino)ethyl)phenyl)-5-(trifluoromethyl)nicotinamide] | < 300 | < 300

— patent US20230102554A1 (GB002, INC., priority 2019, published 2023)
